One assay concerns Haemophilus influenzae. Kind of assay: In vitro minimum inhibitory concentration against Haemophilus influenzae DILL using standard agar dilution method. In kind it is functional. On the technique in general: In agar dilution the substance is mixed into plates at graded concentrations.
Assay [1] deals with Streptococcus pyogenes. Kind of assay: In vitro minimum inhibitory concentration against Streptococcus pyogenes 930 using standard agar dilution method. In kind it is functional.
Assay [2] has as its system Streptococcus pneumoniae. Kind of assay: In vitro minimum inhibitory concentration against Streptococcus pneumoniae 5737. In kind it is functional.
For assay [3], the system named is Streptococcus pyogenes. Kind of assay: In vitro minimum inhibitory concentration against Streptococcus pyogenes PIU 2548 using standard agar dilution method. In kind it is functional.
Assay [4] concerns Streptococcus pneumoniae. As to the kind of experiment: In vitro minimum inhibitory concentration against Streptococcus pneumoniae ATCC 6303. In kind it is functional.
For assay [5], the system named is Streptococcus pneumoniae. As to the kind of experiment: In vitro minimum inhibitory concentration against Streptococcus pneumoniae 5649. In kind it is functional.
In assay [6] the test system is Staphylococcus aureus. As to the kind of experiment: In vitro minimum inhibitory concentration against Staphylococcus aureus 6538P using standard agar dilution method. In kind it is functional.
Assay [7] concerns Streptococcus pyogenes. Kind of assay: In vitro minimum inhibitory concentration against Streptococcus pyogenes EES61 using standard agar dilution method. In kind it is functional.
Assay [8] relates to Staphylococcus aureus. As to the kind of experiment: In vitro minimum inhibitory concentration against Staphylococcus aureus A5177. In kind it is functional.
Assay [9] deals with Staphylococcus aureus. As to the kind of experiment: In vitro minimum inhibitory concentration against Staphylococcus aureus A5177 using standard agar dilution method. In kind it is functional.
Assay [10] deals with Staphylococcus aureus. Kind of assay: In vitro minimum inhibitory concentration against Staphylococcus aureus 6538P using standard agar dilution method.

≈ marks a conversion by molar mass, not a printed value. Bounds are passed on as bounds.

Consider `CC[C@H]1OC(=O)[C@H](C)[C@@H](O[C@H]2C[C@@](C)(OC)[C@@H](O)[C@H](C)O2)[C@H](C)[C@@H](O[C@@H]2O[C@H](C)C[C@H](N(C)C)[C@H]2O)[C@@](C)(OCC(O)CNCCc2ccccc2)C[C@@H](C)C(=O)[C@H](C)[C@@H](O)[C@]1(C)O` (stereo not given in full), for which the MIC with Haemophilus influenzae was 4 µg/mL (≈ 4.39 µM); with Streptococcus pyogenes [1], over 64 µg/mL; in the assay on Streptococcus pneumoniae [2] it was 32 µg/mL (≈ 35.1 µM); in the assay on Streptococcus pyogenes [3], 16 µg/mL (≈ 17.6 µM); in the assay with Streptococcus pneumoniae [4], 0.008 µg/mL (≈ 0.00878 µM); with Streptococcus pneumoniae [5], 32 µg/mL (≈ 35.1 µM). Moreover, the MIC against Staphylococcus aureus [6] is 0.2 µg/mL (≈ 0.219 µM); against Streptococcus pyogenes [7], 0.03 µg/mL (≈ 0.0329 µM); against Staphylococcus aureus [8], 6.2 µg/mL (≈ 6.8 µM).

Regarding `CC[C@H]1OC(=O)[C@H](C)[C@@H](O[C@H]2C[C@@](C)(OC)[C@@H](O)[C@H](C)O2)[C@H](C)[C@@H](O[C@@H]2O[C@H](C)C[C@H](N(C)C)[C@H]2O)[C@@](C)(OC/C=N/Nc2ccccn2)C[C@@H](C)C(=O)[C@H](C)[C@@H](O)[C@]1(C)O`, the MIC against Haemophilus influenzae was 8 µg/mL (≈ 9.23 µM); with Streptococcus pyogenes [1], over 128 µg/mL; in the assay with Streptococcus pneumoniae [2] it was over 128 µg/mL; with Streptococcus pyogenes [3], 128 µg/mL (≈ 148 µM); with Streptococcus pneumoniae [4], 0.25 µg/mL (≈ 0.288 µM); in the assay on Streptococcus pneumoniae [5], 64 µg/mL (≈ 73.8 µM). Further, the MIC amounted to 0.78 µg/mL (≈ 0.9 µM) in the assay on Staphylococcus aureus [6], 0.125 µg/mL (≈ 0.144 µM) against Streptococcus pyogenes [7] and 25 µg/mL (≈ 28.8 µM) against Staphylococcus aureus [8].

For the compound `CC[C@H]1OC(=O)[C@H](C)[C@@H](O[C@H]2C[C@@](C)(OC)[C@@H](O)[C@H](C)O2)[C@H](C)[C@@H](O[C@@H]2O[C@H](C)C[C@H](N(C)C)[C@H]2O)[C@](C)(OC)C[C@@H](C)C(=O)[C@H](C)[C@@H](O)[C@]1(C)O` [CLARITHROMYCIN], the MIC in the assay on Haemophilus influenzae was 8 µg/mL (≈ 10.7 µM); against Streptococcus pyogenes [1] it was over 128 µg/mL; with Streptococcus pneumoniae [2], over 128 µg/mL; in the assay with Streptococcus pyogenes [3] it was 32 µg/mL (≈ 42.8 µM); with Streptococcus pneumoniae [4] it was 0.06 µg/mL (≈ 0.0802 µM); in the assay with Streptococcus pneumoniae [5], 16 µg/mL (≈ 21.4 µM). Besides, the MIC in the assay on Staphylococcus aureus [6] came to 0.2 µg/mL (≈ 0.267 µM); with Streptococcus pyogenes [7], 0.03 µg/mL (≈ 0.0401 µM); with Staphylococcus aureus [8], 6.2 µg/mL (≈ 8.29 µM).

`CC[C@H]1OC(=O)[C@H](C)[C@@H](O[C@H]2C[C@@](C)(OC)[C@@H](O)[C@H](C)O2)[C@H](C)[C@@H](O[C@@H]2O[C@H](C)C[C@H](N(C)C)[C@H]2O)[C@@](C)(OCc2ccc(F)cc2)C[C@@H](C)C(=O)[C@H](C)[C@@H](O)[C@]1(C)O`: the MIC worked out at 64 µg/mL (≈ 76 µM) with Haemophilus influenzae; 8 µg/mL (≈ 9.5 µM) with Streptococcus pyogenes [1]; 8 µg/mL (≈ 9.5 µM) against Streptococcus pneumoniae [2]; 8 µg/mL (≈ 9.5 µM) against Streptococcus pyogenes [3]; 1 µg/mL (≈ 1.19 µM) against Streptococcus pneumoniae [4]; 8 µg/mL (≈ 9.5 µM) in the assay with Streptococcus pneumoniae [5]. The MIC was determined as 3.1 µg/mL (≈ 3.68 µM) in the assay with Staphylococcus aureus [6], 1 µg/mL (≈ 1.19 µM) with Streptococcus pyogenes [7] and 12.5 µg/mL (≈ 14.8 µM) against Staphylococcus aureus [8].

For `CC[C@H]1OC(=O)[C@H](C)[C@@H](O[C@H]2C[C@@](C)(OC)[C@@H](O)[C@H](C)O2)[C@H](C)[C@@H](O[C@@H]2O[C@H](C)C[C@H](N(C)C)[C@H]2O)[C@@](C)(OCCNCCc2ccccc2)C[C@@H](C)C(=O)[C@H](C)[C@@H](O)[C@]1(C)O`, the MIC in the assay on Haemophilus influenzae was 2 µg/mL (≈ 2.27 µM); against Streptococcus pyogenes [1], 64 µg/mL (≈ 72.6 µM); in the assay with Streptococcus pneumoniae [2], 64 µg/mL (≈ 72.6 µM); with Streptococcus pyogenes [3] it was 8 µg/mL (≈ 9.08 µM); in the assay on Streptococcus pneumoniae [4] it was 0.03 µg/mL (≈ 0.034 µM); with Streptococcus pneumoniae [5] it was 4 µg/mL (≈ 4.54 µM). The MIC amounted to 0.2 µg/mL (≈ 0.227 µM) against Staphylococcus aureus [6], 0.015 µg/mL (≈ 0.017 µM) in the assay with Streptococcus pyogenes [7] and 12.5 µg/mL (≈ 14.2 µM) in the assay with Staphylococcus aureus [8].

On to `CCCO[C@@]1(C)C[C@@H](C)C(=O)[C@H](C)[C@@H](O)[C@](C)(O)[C@@H](CC)OC(=O)[C@H](C)[C@@H](O[C@H]2C[C@@](C)(OC)[C@@H](O)[C@H](C)O2)[C@H](C)[C@H]1O[C@@H]1O[C@H](C)C[C@H](N(C)C)[C@H]1O`, for which the MIC in the assay with Haemophilus influenzae is 32 µg/mL (≈ 41.2 µM); against Staphylococcus aureus [9] it was 25 µg/mL (≈ 32.2 µM); against Streptococcus pyogenes [1], over 128 µg/mL; in the assay on Staphylococcus aureus [10], 3.1 µg/mL (≈ 3.99 µM); against Streptococcus pyogenes [3], 64 µg/mL (≈ 82.5 µM); with Streptococcus pyogenes [7], 0.05 µg/mL (≈ 0.0644 µM).

On to `CC[C@H]1OC(=O)[C@H](C)[C@@H](O[C@H]2C[C@@](C)(OC)[C@@H](O)[C@H](C)O2)[C@H](C)[C@@H](O[C@@H]2O[C@H](C)C[C@H](N(C)C)[C@H]2O)[C@@](C)(OCC=O)C[C@@H](C)C(=O)[C@H](C)[C@@H](O)[C@]1(C)O`, for which the MIC is 8 µg/mL (≈ 10.3 µM) in the assay with Haemophilus influenzae; over 128 µg/mL against Streptococcus pyogenes [1]; over 128 µg/mL in the assay on Streptococcus pneumoniae [2]; 128 µg/mL (≈ 165 µM) against Streptococcus pyogenes [3]; 0.5 µg/mL (≈ 0.644 µM) against Streptococcus pneumoniae [4]; 64 µg/mL (≈ 82.5 µM) against Streptococcus pneumoniae [5]. Further, the MIC against Staphylococcus aureus [6] came out at 0.78 µg/mL (≈ 1.01 µM); in the assay with Streptococcus pyogenes [7], 0.06 µg/mL (≈ 0.0773 µM); in the assay on Staphylococcus aureus [8], 25 µg/mL (≈ 32.2 µM).

On to `CC[C@H]1OC(=O)[C@H](C)[C@@H](O[C@H]2C[C@@](C)(OC)[C@@H](O)[C@H](C)O2)[C@H](C)[C@@H](O[C@@H]2O[C@H](C)C[C@H](N(C)C)[C@H]2O)[C@@](C)(OC/C=N/NC)C[C@@H](C)C(=O)[C@H](C)[C@@H](O)[C@]1(C)O`, for which the MIC was 8 µg/mL (≈ 9.95 µM) against Haemophilus influenzae; over 128 µg/mL against Streptococcus pyogenes [1]; over 128 µg/mL against Streptococcus pneumoniae [2]; 128 µg/mL (≈ 159 µM) in the assay with Streptococcus pyogenes [3]; 0.125 µg/mL (≈ 0.155 µM) against Streptococcus pneumoniae [4]; 64 µg/mL (≈ 79.6 µM) against Streptococcus pneumoniae [5]. Also, the MIC against Staphylococcus aureus [6] was 0.78 µg/mL (≈ 0.97 µM); in the assay on Streptococcus pyogenes [7] it was 0.06 µg/mL (≈ 0.0746 µM); in the assay with Staphylococcus aureus [8] it was 25 µg/mL (≈ 31.1 µM).

Turning to `CC[C@H]1OC(=O)[C@H](C)[C@@H](O[C@H]2C[C@@](C)(OC)[C@@H](O)[C@H](C)O2)[C@H](C)[C@@H](O[C@@H]2O[C@H](C)C[C@H](N(C)C)[C@H]2O)[C@@](C)(OC/C=C/c2cnc3ccccc3c2)C[C@@H](C)C(=O)[C@H](C)[C@@H](O)[C@]1(C)O`, the MIC was determined as 8 µg/mL (≈ 8.88 µM) against Haemophilus influenzae; 64 µg/mL (≈ 71 µM) against Streptococcus pyogenes [1]; 128 µg/mL (≈ 142 µM) against Streptococcus pneumoniae [2]; 4 µg/mL (≈ 4.44 µM) in the assay with Streptococcus pyogenes [3]; 0.06 µg/mL (≈ 0.0666 µM) in the assay on Streptococcus pneumoniae [4]; 4 µg/mL (≈ 4.44 µM) in the assay on Streptococcus pneumoniae [5]. For the same compound, the MIC with Staphylococcus aureus [6] is 0.2 µg/mL (≈ 0.222 µM); against Streptococcus pyogenes [7] it was 0.06 µg/mL (≈ 0.0666 µM); against Staphylococcus aureus [8], 3.1 µg/mL (≈ 3.44 µM).

Take `CC[C@H]1OC(=O)[C@H](C)[C@@H](O[C@H]2C[C@@](C)(OC)[C@@H](O)[C@H](C)O2)[C@H](C)[C@@H](O[C@@H]2O[C@H](C)C[C@H](N(C)C)[C@H]2O)[C@@](C)(OC/C=C/c2ccccc2)C[C@@H](C)C(=O)[C@H](C)[C@@H](O)[C@]1(C)O`: the MIC was 4 µg/mL (≈ 4.71 µM) with Haemophilus influenzae; 32 µg/mL (≈ 37.6 µM) against Streptococcus pyogenes [1]; 32 µg/mL (≈ 37.6 µM) against Streptococcus pneumoniae [2]; 16 µg/mL (≈ 18.8 µM) against Streptococcus pyogenes [3]; 0.06 µg/mL (≈ 0.0706 µM) in the assay on Streptococcus pneumoniae [4]; 4 µg/mL (≈ 4.71 µM) with Streptococcus pneumoniae [5]. In addition, the MIC in the assay with Staphylococcus aureus [6] amounted to 0.39 µg/mL (≈ 0.459 µM); in the assay with Streptococcus pyogenes [7] it was 0.03 µg/mL (≈ 0.0353 µM); against Staphylococcus aureus [8], 6.2 µg/mL (≈ 7.29 µM).

For the compound `CC[C@H]1OC(=O)[C@H](C)[C@@H](O[C@H]2C[C@@](C)(OC)[C@@H](O)[C@H](C)O2)[C@H](C)[C@@H](O[C@@H]2O[C@H](C)C[C@H](N(C)C)[C@H]2O)[C@@](C)(OC/C=C/c2cccc3ccccc23)C[C@@H](C)C(=O)[C@H](C)[C@@H](O)[C@]1(C)O`, the MIC stood at 4 µg/mL (≈ 4.44 µM) in the assay on Haemophilus influenzae; 8 µg/mL (≈ 8.89 µM) against Streptococcus pyogenes [1]; 8 µg/mL (≈ 8.89 µM) in the assay on Streptococcus pneumoniae [2]; 8 µg/mL (≈ 8.89 µM) in the assay with Streptococcus pyogenes [3]; 0.25 µg/mL (≈ 0.278 µM) with Streptococcus pneumoniae [4]; 16 µg/mL (≈ 17.8 µM) against Streptococcus pneumoniae [5]. The MIC in the assay on Staphylococcus aureus [6] was determined as 0.78 µg/mL (≈ 0.867 µM); in the assay on Streptococcus pyogenes [7] it was 0.06 µg/mL (≈ 0.0667 µM); in the assay on Staphylococcus aureus [8] it was 12.5 µg/mL (≈ 13.9 µM).

For `CC[C@H]1OC(=O)[C@H](C)[C@@H](O[C@H]2C[C@@](C)(OC)[C@@H](O)[C@H](C)O2)[C@H](C)[C@@H](O[C@@H]2O[C@H](C)C[C@H](N(C)C)[C@H]2O)[C@@](C)(OC/C=N/OC)C[C@@H](C)C(=O)[C@H](C)[C@@H](O)[C@]1(C)O`, the MIC in the assay with Haemophilus influenzae is 16 µg/mL (≈ 19.9 µM); against Streptococcus pyogenes [1], over 128 µg/mL; in the assay on Streptococcus pneumoniae [2], over 128 µg/mL; in the assay with Streptococcus pyogenes [3] it was 64 µg/mL (≈ 79.5 µM); in the assay with Streptococcus pneumoniae [4], 0.125 µg/mL (≈ 0.155 µM); against Streptococcus pneumoniae [5], 32 µg/mL (≈ 39.8 µM). Moreover, the MIC amounted to 0.78 µg/mL (≈ 0.969 µM) against Staphylococcus aureus [6], 0.125 µg/mL (≈ 0.155 µM) in the assay on Streptococcus pyogenes [7] and 25 µg/mL (≈ 31.1 µM) in the assay on Staphylococcus aureus [8].

The record behind these values is ChEMBL document CHEMBL1133079, “Synthesis and antibacterial activity of novel 6-O-substituted erythromycin A derivatives” (2000).
